Measured values as given in patent US6340705B1, “Use of α-linolenic acid metabolites for treatment or prevention of cancer” (Monsanto Technology, LLC, priority 1999, dated 2002).
Marks after values point to notes of the source that are not given here.

Columns and labels:
HepG2 cells [1] = assay: Uptake of 14C-ALA, 14C-SDA and 14C-EPA by HepG2 cells; type: in vitro ADME; settings: for radiolabeled fatty acid taken up by the cells: 20 μM complexed to fatty acid free BSA, within the first six hours of incubation; for uptake by HepG2 cells, comparison (FIG. 1): 20 μM, 6, 24 and 48 hours
Experimental: To a culture medium containing HepG2 cells was added 20 μM ^14C-ALA, ^14C-SDA or ^14C-EPA complexed to fatty acid free BSA. The amount of ^14C-ALA, ^14C-SDA or ^14-EPA EPA Taken up by the HepG2 cells was measured 6 hours, 24 hours and 48 hours after addition of the fatty acid. A scintillation counter was used to measure the total amount of radioactivity in the HepG2 cells and the amount remaining in the medium.

HepG2 cells [2] = assay: Metabolism of radiolabeled fatty acids to long chain n-3 PUFAs (EPA, DHA) in HepG2 cells; type: in vitro ADME
Experimental: HepG2 cells were allowed to take up ^14C-ALA or ^14C-SDA as described in Example 2. The total amount of ^14C-EPA, ^14C-DPA and ^14C-DHA present in the HepG2 cells was measured 6 hours, 24 hours and 48 hours after addition of the fatty acid by argentation thin layer chromatography (TLC). The amount of each fatty acid present as a band on the TLC plate was quantified by electronic autoradiography using an Instant Imager supplied by Packard (Meriden, Conn.).
HepG2 cells were allowed to take up ^14C-ALA, ^14C-SDA or ^14C-EPA as described in Example 2. The amount of ^14C-EPA and ^14C-DHA present in the HepG2 cells was measured 6 hours, 24 hours and 48 hours after addition of the fatty acids by argentation thin layer chromatography (TLC) as described in Example 3. The amount of ^14C-EPA and ^14C-DHA present as bands on the TLC plate were quantified by electronic autoradiography using an Instant Imager as described in Example 3.

[3] = tested on: Min/+ mouse model of intestinal cancer; assay: Intestinal polyp formation in the Min/+ mouse model of intestinal cancer; type: in vivo; set-up: Avg. large intestine tumor size: unit not given here; settings: Min/+ mice; for Total small intestine tumors/group / Avg. large intestine tumors/mouse / Avg. small intestine tumor size / Avg. small intestine tumors/mouse / Avg. large intestine tumor size / Avg. large intestine tumor load / Total Avg. overall tumor load / Total Avg. overall tumor size / Total Avg. tumors/mouse / Avg. small intestine tumor load: 10 g/day human equivalent dose (3% wt.) or sulindac 320 ppm; for Avg. large intestine tumors/mouse / Avg. small intestine tumor size / Avg. small intestine tumors/mouse / Avg. large intestine tumor size / Avg. large intestine tumor load / Total Avg. overall tumor load / Total Avg. overall tumor size / Total Avg. tumors/mouse / Avg. small intestine tumor load: mean ± SEM; for Avg. large intestine tumor size: only animals bearing colonic tumors; for Avg. large intestine tumor load / Avg. small intestine tumor load: tumor number × tumor size; for Total Avg. overall tumor load / Total Avg. overall tumor size / Total Avg. tumors/mouse: large and small intestine
Experimental: The efficacy of select n-3 and n-6 polyunsaturated fatty acids was evaluated in the Min/+ mouse model of intestinal cancer. The following fatty acid ethyl esters were tested for their effect on intestinal polyp formation: 1) ALA-EE; 2) SDA-EE; 2) EPA-EE; 4) DHA-EE; 5) GLA-EE ([…], 18:3 n-6); and 6) CLA-EE (conjugated linoleic acid; c9t11-18:2 (77%)+c9c11-18:2 (18%)+other isomers (5%)).
These fatty acid ethyl esters were added to the US17 diet to provide 10 g/day human equivalent dose (3% wt.). The NSAID, sulindac (320 ppm), served as the positive control. In order to maintain a 17% fat (37 en%) content in the US17 diet, oleic acid (18:1 n-9) was removed from the US17 diet in an amount equal to the amount of the fatty acid ethyl ester that was added. Mice were received at approximately five weeks of age and were fed the test diets upon receipt. After seven weeks on the respective test diet, the mice were sacrificed and the intestinal polyps were counted and measured.

[4] = Metabolism in mice, time course analysis using radiolabeled fatty acids (mouse liver); settings: mice on US17 diet, intraperitoneal 10 μCi, at 24 hours
Experimental: The method used was a time course study using ^14C-labeled fatty acids.
Mice were fed the US17 diet for a period of one month in order to achieve steady-state fatty acid metabolism. After achieving steady-state fatty acid metabolism, the mice were administered an intraperitoneal injection containing 10 μCi of ^14C-ALA, ^14C-SDA, ^14C-EPA OR ^14C-DHA. Mice were sacrificed 3 hours, 8 hours or 24 hours post-injection, and the total amount of ^14C-EPA, ^14C-DPA n-3 and ^14C-DHA was measured by argentation thin layer chromatography followed by direct electronic autoradiography, as described in Example 3.

[5] = type: in vivo, rats; settings: for sum of long chain n-3 PUFAs (EPA+DPA n-3, and DHA) in liver tissue, rank order of dose dependent accumulation (FIG. 9): rat, in vivo
Text: (§1) Mice were fed a US17 diet containing α-linolenic acid ethyl ester (ALA-EE), stearidonic acid ethyl ester (SDA-EE), eicosapentaenoic acid ethyl ester (EPA-EE), or docosahexaenoic acid ethyl ester (DHA-EE) in an amount equivalent to a human western diet containing 1, 3 or 10 g/day of the fatty acid (g/day human equivalent dose). In order to maintain a 17% fat (37 en %) content in the US17 diet, oleic acid (18:1 n-9), as an oleic acid cassette, was removed from the US17 diet in an amount equal to the amount of fatty acid ester that was added. Oleic acid was selected as the replacement fatty acid because literature reports indicate that oleic acid is neutral with respect to inflammation and cancer.
(§2) After one month on the respective US17-based diets, the mice were sacrificed and the fatty acid composition of each of their livers was analyzed by gas chromatography. The results of these analyses are pressured in FIG. 8.
The method used was as described in Example 6 except that rats were used in place of mice.

HT-29 cells = assay: Primary tumor growth in the nude mouse/HT-29 cancer model; type: in vivo; settings: nude mice, HT-29 cells in footpad, US17 diet containing stearidonic acid 3% (10 g/day human equivalent dose), after 35 days
Experimental: The efficacy of stearidonic acid (18:4n-3) in inhibiting primary tumor growth was evaluated using the nude mouse/HT-29 model. The nude mouse/HT-29 model has been described previously. Hernandez-Alcoceloa R., Fernandez, F., Lacal, J C, Cancer Res., 59(13), 312-18 (1999); Fantini, J., Cancer J., 5(2) (1992).
Nude (i.e., immunodeficient) mice were fed the US17 diet for three weeks. HT-29 cells were cultured in RPMI-1640 medium supplemented with fetal bovine serum, penicillin, and streptomycin (Gibco, Grand Island, N.Y.) and maintained in a CO2 atmosphere at 37° C. After achieving the optimal cell density, the HT-29 cells were rinsed and then suspended in phosphate buffered saline (PBS). A cell suspension was made in MATRIGEL (Becton Dickinson Labware, Bedford, Mass.). The suspension was ⅔ by volume cells in PBS and ⅓ by volume MATRIGEL. MATRIGEL provides an extracellular matrix secreted by […]. The matrix contains angiogenic and cell proliferation growth factors that aid in HT-29 cell attachment and proliferation as a primary tumor.
One million cells were injected in a 30 μl volume into the subplanter area of the righthind footpad of the nude mice. […] The amount of primary tumor growth was measured by measuring the change in mouse footpad volume over time. Footpad volume was measured with a plethysmometer (Ugo Basile, Camerio-Varese, Italy).

[6] = Arachidonic acid level in phospholipid fraction of small intestine, Min/+ mouse; type: in vivo; settings: Min/+ mice, fed as ethyl esters, 10 g/day human equivalent dose in US17 diet
Experimental: Fatty acid composition was determined in the small intestine because that is where the vast majority of polyps form. These fatty acid esters were added to the US17 diet as discussed in Example 8. The arachidonic acid level in the phospholipid fraction of the small intestines of the mice was determined by gas chromatography. In FIG. 11, bars labeled with the same letter (e.g., control and CLA, both labeled with a “b”) have values which, statistically, are not different.

[7] = set-up: species or system Mice; settings: mouse, in vivo
Text: The method used was a non-radioactive, dose response, metabolic end-point study.
as §1, §2

[8] = fatty acid ethyl ester 10 g/day human equivalent dose (3% wt.) in US17 diet or sulindac 320 ppm, seven weeks
[9] = large intestine and small intestine, versus US17 diet, 10 g/day human equivalent dose

| Structure (SMILES) | radiolabeled fatty acid taken up by the cells (HepG2 cells [1]) | uptake by HepG2 cells, comparison (FIG. 1) (HepG2 cells [1]) | Total small intestine tumors/group ([3]; seven weeks) | Avg. large intestine tumors/mouse ([3]; seven weeks) | Avg. small intestine tumor size ([3]; seven weeks) | Avg. small intestine tumors/mouse ([3]; seven weeks) | Avg. large intestine tumor size ([3]; seven weeks) | Avg. large intestine tumor load ([3]; seven weeks) | Total large intestine tumors/group [3, 8] | Total Avg. overall tumor load ([3]; seven weeks) | Total Avg. overall tumor size ([3]; seven weeks) | Total Avg. tumors/mouse ([3]; seven weeks) | sum of long chain n-3 PUFAs (EPA+DPA n-3, and DHA) in liver tissue, rank order of dose dependent accumulation (FIG. 9) [5] | sum of long chain n-3 PUFAs (EPA+DPA n-3+DHA) in liver tissue, rank order of dose dependent increase (FIG. 8) [7] | other results |
| --- | --- | --- | --- | --- | --- | --- | --- | --- | --- | --- | --- | --- | --- | --- | --- |
| CC/C=C\C/C=C\C/C=C\C/C=C\C/C=C\CCCC(=O)O [EPA, eicosapentaenoic acid] | Approximately 95% | taken up equally | 176 | 0.9 ± 0.3^abcd | 1.05 ± 0.03^b mm | 17.6 ± 2.2^cd | 2.48 ± 0.39^ab | 2.25 ± 0.75^bcd mm | 9 | 20.28 ± 2.23^cd mm | 1.11 ± 0.04^cd mm | 18.5 ± 2.2^a |  |  | amount of EPA that remained after incubation with EPA itself (HepG2 cells [2]; 20 μM): 63% |
| CC/C=C\C/C=C\C/C=C\C/C=C\C/C=C\C/C=C\CCC(=O)O [DHA, docosahexaenoic acid] |  |  | 280 | 1.8 ± 0.4^a | 1.16 ± 0.04^ab mm | 28.0 ± 5.6^bc | 3.01 ± 0.20^a | 5.06 ± 0.85^a mm | 18 | 35.60 ± 7.10^bc mm | 1.20 ± 0.04^bc mm | 29.8 ± 5.9^bc |  |  | order of metabolism to 14C-EPA + 14C-DPA n-3 + 14C-DHA in mouse liver (FIG. 6) [4]: DHA=EPA>SDA>ALA; effectiveness in inhibiting polyp formation and development in the large intestine ([3]; 10 g/day human equivalent dose): no efficacy; Avg. small intestine tumor load ([3]; seven weeks): 33.15 ± 8.09^bc mm |
| CC/C=C\C/C=C\C/C=C\C/C=C\CCCCC(=O)O [SDA, stearidonic acid] | Approximately 95% | taken up equally | 185 | 0.2 ± 0.1^d | 1.07 ± 0.02^ab mm | 18.5 ± 1.9^c | 1.50 ± 0.00^b | 0.30 ± 0.20^d mm | 2 | 20.19 ± 2.24^cd mm | 1.08 ± 0.02^d mm | 18.7 ± 1.9^a |  |  | metabolism to long chain n-3 PUFAs, comparison (FIG. 2 to FIG. 3) (HepG2 cells [2]): faster than that of ALA; rate of metabolism to EPA and further to DHA relative to ALA (HepG2 cells [2]): approximately twice that of ALA; metabolized to 14C-fatty acid end products (EPA or DHA) or intermediates (20:4 n-3, 22:5 n-3, 24:5 n-3) (HepG2 cells [2]; 20 μM): ~95%; level of arachidonic acid in liver tissue (FIG. 9) ([5]; rats, US17 diet with 1, 3 or 10 g/day human equivalent dose, one month): greater decrease in the level of arachidonic acid than did either ALA or EPA; less primary tumor growth (footpad volume) than US17 diet (HT-29 cells): 33%; decreasing the level of arachidonic acid in the small intestine (phospholipid fraction, FIG. 11) [6]: more effective than ALA, EPA and DHA; effectiveness in inhibiting polyp formation and development in the large intestine ([3]; 10 g/day human equivalent dose): comparable to that of sulindac; effectiveness in inhibiting polyp formation and development in the small intestine ([3]; 10 g/day human equivalent dose): comparable to that of EPA; decrease in polyp load (number×size) [3, 9]: 56%; decrease in polyp number [3, 9]: 47%; decrease in polyp size [3, 9]: 18%; Avg. small intestine tumor load ([3]; seven weeks): 19.90 ± 2.11^cd mm; Total large intestine tumors/group, figure in brackets (animals bearing tumors/animals in group) [3, 8]: 2/10 |
| CC/C=C\C/C=C\C/C=C\C/C=C\CCCCC(=O)OCC [SDA-EE, stearidonic acid ethyl ester] |  |  |  |  |  |  |  |  |  |  |  |  | DHA-EE>EPA-EE>SDA-EE>ALA-EE | DHA-EE>EPA-EE>SDA-EE>ALA-EE |  |
| CC/C=C\C/C=C\C/C=C\C/C=C\C/C=C\C/C=C\CCC(=O)OCC [DHA-EE, docosahexaenoic acid ethyl ester] |  |  |  |  |  |  |  |  |  |  |  |  | DHA-EE>EPA-EE>SDA-EE>ALA-EE | DHA-EE>EPA-EE>SDA-EE>ALA-EE |  |
| CC/C=C\C/C=C\C/C=C\C/C=C\C/C=C\CCCC(=O)OCC [EPA-EE, eicosapentaenoic acid ethyl ester] |  |  |  |  |  |  |  |  |  |  |  |  | DHA-EE>EPA-EE>SDA-EE>ALA-EE | DHA-EE>EPA-EE>SDA-EE>ALA-EE |  |
| CC/C=C\C/C=C\C/C=C\CCCCCCCC(=O)OCC [ALA-EE, α-linolenic acid ethyl ester] |  |  |  |  |  |  |  |  |  |  |  |  | DHA-EE>EPA-EE>SDA-EE>ALA-EE | DHA-EE>EPA-EE>SDA-EE>ALA-EE |  |
| CC/C=C\C/C=C\C/C=C\CCCCCCCC(=O)O [ALA, α-linolenic acid] | Approximately 95% | taken up equally |  |  |  |  |  |  |  |  |  |  |  |  |  |
